Reference: publication PMC6269716 (2013)

What was measured:
[1] = test system: HTelo21 (DNA, G4) GGGTTAGGGTTAGGGTTAGGG; experiment: ESI-MS peak intensities; settings: NH4+ (150 mM ammonium acetate); 15% methanol added before injection; 5 µM DNA; site 1 of 2
[2] = test system: DK66 (DNA, duplex) CGCGAATTCGCG; experiment: ESI-MS peak intensities; settings: NH4+ (150 mM ammonium acetate), 15% methanol added before injection, 5 µM DNA
[3] = test system: F21T (HTelo-21, FRET) (DNA, G4) GGGTTAGGGTTAGGGTTAGGG; experiment: FRET melting; settings: K+ (60 mM); potassium cacodylate pH 7.4; 1 µM compound; 200 nM DNA
[4] = test system: BCL2 (FRET) (DNA, G4) GGGCGCGGGAGGAAGGGGGCGGG; experiment: FRET melting; settings: K+ (60 mM); potassium cacodylate pH 7.4; 1 µM compound; 200 nM DNA
[5] = test system: CKIT1 (c-kit-1, FRET) (DNA, G4) AGAGGGAGGGCGCTGGGAGGAGGGGCT; experiment: FRET melting; settings: K+ (60 mM); potassium cacodylate pH 7.4; 1 µM compound; 200 nM DNA
[6] = test system: T Loop (DNA, hairpin, hexaethyleneglycol (HEG) linker between nucleotides 10 and 11 as hairpin loop) TATAGCTATATATAGCTATA; experiment: FRET melting; settings: K+ (60 mM); potassium cacodylate pH 7.4; 1 µM compound; 200 nM DNA

| SMILES | Log K1 [1] | Log K1 ([2]; site 1 of 2) | Log K1 [2] | ΔTm [3] | ΔTm [4] | ΔTm [5] | ΔTm [6] |
| --- | --- | --- | --- | --- | --- | --- | --- |
| O=C(CCCCCN1CCCCC1)c1ccc2c(c1)C(CCCC1c3cc(C(=O)CCCCCN4CCCCC4)ccc3Oc3ccc(C(=O)CCCCCN4CCCCC4)cc31)c1cc(C(=O)CCCCCN3CCCCC3)ccc1O2 | 5.8 ± 0.1 | 3.9 ± 0.1 | – | – | – | – | – |
| CN(C)CCCCCC(=O)c1ccc2c(c1)Cc1cc(C(=O)CCCCCN(C)C)ccc1O2 | 4.6 ± 0.1 | 3.4 ± 0.2 | – | – | – | – | – |
| O=C(CCCCCN1CCCCC1)c1ccc2oc3ccc(C(=O)CCCCCN4CCCCC4)cc3c(=O)c2c1 | 4.4 ± 0.1 | 3.7 ± 0.1 | – | – | – | – | – |
| CN1CCN(CCCCCC(=O)c2ccc3oc4ccc(C(=O)CCCCCN5CCN(C)CC5)cc4c(=O)c3c2)CC1 | 4.1 ± 0.1 | 1.8 ± 0.2 | – | – | – | – | – |
| CN1CCN(CCCCOc2ccc3c(=O)c4ccc(OCCCCN5CCN(C)CC5)cc4oc3c2)CC1 | 4.3 ± 0.1 | 3.5 ± 0.1 | – | – | – | – | – |
| CN1CCN(CCCCCC(=O)c2ccc3c(c2)Cc2cc(C(=O)CCCCCN4CCN(C)CC4)ccc2O3)CC1 | 4.4 ± 0.1 | 3.7 ± 0.1 | – | – | – | – | – |
| O=c1c2ccc(OCCCCN3CCCCC3)cc2oc2cc(OCCCCN3CCCCC3)ccc12 | 4.7 ± 0.1 | – | 3.4 ± 0.1 | – | – | – | – |
| CN(C)CCCCOc1ccc2c(=O)c3ccc(OCCCCN(C)C)cc3oc2c1 | 4.7 ± 0.1 | 3.6 ± 0.1 | – | – | – | – | – |
| CN(C)CCCCCC(=O)c1ccc2c(c1)C(CCCCN(C)C)c1cc(C(=O)CCCCCN(C)C)ccc1O2 | 5.2 ± 0.4 | 3.6 ± 0.3 | – | 11.9 ± 0.1 °C | 4.8 ± 0.1 °C | 7.9 ± 0.1 °C | 2.2 ± 0.1 °C |
| O=C(CCCCCN1CCCCC1)c1ccc2c(c1)Cc1cc(C(=O)CCCCCN3CCCCC3)ccc1O2 | 4.7 ± 0.1 | 3.8 ± 0.2 | – | 1.3 ± 0.1 °C | 0.7 ± 0.1 °C | 1.0 ± 0.1 °C | 0.4 ± 0.1 °C |
| CN(C)CCCCCC(=O)c1ccc2oc3ccc(C(=O)CCCCCN(C)C)cc3c(=O)c2c1 | 4.0 ± 0.1 | 3.3 ± 0.2 | – | – | – | – | – |
